Data on 17 compounds can be found in patent publication US10662203B2, “Pyrido[2,3-b]indole compounds for the treatment and prophylaxis of bacterial infection” (Hoffmann-La Roche Inc., priority 2017, dated 2020).

≈ marks a conversion by molar mass, not a printed value. Like-named read-outs stand apart in the source and are kept apart here. A value given as a limit tells only on which side of the number the result lay.

The term IC50 denotes the midpoint of a concentration-inhibition curve. A word on the CC50: it is the concentration that lowers cell viability or growth by half. Broadly, the thermodynamic solubility is the concentration in solution at equilibrium with solid.

For data set [1], the system named is K. pneumoniae (ATCC10031). Description: 50% growth inhibitory concentration (IC50) determination assay. The settings on record: Klebsiella pneumoniae, Iso-Sensitest broth, 0.098 = detection limit. Format: cell-based. In a few lines: (§1)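 Compounds were two-fold serially diluted (50 to 0.097 μM final) in Iso-Sensitest broth, with ~5×10^5 CFU/mL bacteria. Plates were incubated at 35±2° C and growth followed by OD600 every 20 min over 16 h to derive IC50.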

Data set [2] concerns A. baumannii (ATCC17978). Described as above. In kind it is cell-based. To be noted: Acinetobacter baumannii, ATCC17978, A. baumannii ATCC17978; Iso-Sensitest broth; 0.098 = detection limit. A digest of the protocol: as §1
In data set [3] the test system is S. aureus (ATCC29213). The description is as above. In kind it is cell-based. To be noted: Staphylococcus aureus, Iso-Sensitest broth, 0.098 = detection limit. A digest of the protocol:
as §1

Data set [4] can be described thus: Single dose PK study (SDPK) in female CD-1 mouse. Format: in vivo. To be noted: MOUSE IV; for clearance: female, CD-1, plasma, read-out: CL total. As for the experimental part:
Single Dose PK Study (SDPK) in Female CD-1 Mouse: The single dose PK in female CD-1 mouse was performed to assess compound's pharmacokinetic properties. One group of animals were dosed via bolus intravenous (IV) of the respective compound. Blood samples (approximately 30 μL) were collected via saphenous vein at 5 mins, 15 min, 30 min, 1 hr, 2 hr, 4 hr and 7 hr. For last time point (24 hr), samples were collected via cardiac puncture while the mouse was under anesthesia. Blood samples were placed into tubes containing EDTA-K2 anticoagulant (2 μL of 0.5M per tube) and centrifuged at 3000 rpm for 10 minutes at 4° C. within half an hour to separate plasma from the samples. Following centrifugation, plasma samples were stored in polypropylene tubes, quick frozen over dry ice and kept at −70±10° C. until LC/MS/MS analysis. The pharmacokinetic parameters were calculated using non-compartmental module of WinNonlin® Professional 6.4.

A short description of data set [5]: Cytotoxicity assay (HepG2, CellTiter-Blue cell viability). In kind it is cell-based. The settings on record: human; HepG2 cells, 3 days treatment; "*": the detection limit; read-out: CC50. A digest of the protocol:
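HepG2 cells (1.2×10^4 per well) exposed to compounds for 3 days; viability then read by CellTiter-Blue fluorescence after 3 h at 37 °C. CC50 from four-parameter logistic fit.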
Background: Alamar Blue is a resazurin reagent that responds to reducing activity.

The nature of data set [6]: Lyophilisation solubility assay (LYSA). To be noted: phosphate buffer, pH 6.5, aqueous buffer, thermodynamic from solid, 0.05 M phosphate buffer, HPLC-UV. Format: physicochemical. A digest of the protocol: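 Duplicate samples made from 10 mM DMSO stock. DMSO evaporated and the residue taken up in 0.05 M phosphate buffer, pH 6.5, stirred 1 h and shaken 2 h, then left overnight. Filtrate and its 1/10 dilution quantified by HPLC-UV.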

For the compound `CCn1cc(C(=O)O)c(=O)c2cc(-c3cnc4[nH]c5c(NC)cc(F)c(F)c5c4c3N3CC4CC3CO4)cnc21` (stereo not shown) [Example 1.05], the IC50 in data set [1] is less than 0.098 µM; in data set [2], 0.725 µM; in data set [3] it was less than 0.098 µM. The AUC total in data set [4] (1.0 mg/kg-Solution) stood at 162.7 ng·h/mL. In addition, the clearance in data set [4] (1.0 mg/kg-Solution) is 100 mL/min/kg.

With `CCCN(C)c1c(-c2cnc3c(c2)c(=O)c(C(=O)O)cn3CC)cnc2[nH]c3c(NC)cc(F)c(F)c3c12` [Example 1.07], in data set [4] (0.7 mg/kg-Solution), the AUC total stood at 260.7 ng·h/mL and the clearance came to 45.8 mL/min/kg.

For `CNc1cc(F)c(F)c2c1[nH]c1ncc(-c3cnc4c(c3)c(=O)c(C(=O)O)cn4CCN(C)C)c(N(C)C)c12` [Example 1.22], the IC50 in data set [1] was less than 0.098 µM; in data set [2] it was 0.118 µM; in data set [3] it was less than 0.098 µM. In addition, in data set [4] (1.0 mg/kg-Solution), the AUC total is 179.9 ng·h/mL. The clearance in data set [4] (1.0 mg/kg-Solution) was 91.3 mL/min/kg.

Regarding `CNc1cc(F)c(F)c2c1[nH]c1ncc(-c3cnc4c(c3)c(=O)c(C(=O)O)cn4C)c(N3CCC(O)CC3)c12` [Example 1.43], the 50% cytotoxic concentration (CC50) at 3 days in data set [5] was 39300 nM. The results for the IC50 in data set [1], in data set [2] and in data set [3] were less than 0.098 µM, 0.663 µM and less than 0.098 µM, respectively. This compound came in with an AUC total in data set [4] (1.0 mg/kg-Solution) of 235.1 ng·h/mL. For the same compound, the clearance in data set [4] (1.0 mg/kg-Solution) worked out at 66.3 mL/min/kg.

In the case of `CNc1cc(F)cc2c1[nH]c1ncc(-c3cnc4c(c3)c(=O)c(C(=O)O)cn4NC)c(N3CCOCC3)c12` [Example 1.52], the IC50 is less than 0.098 µM in data set [1], 0.233 µM in data set [2] and less than 0.098 µM in data set [3]. The same compound displayed an AUC total in data set [4] (1.0 mg/kg-Solution) of 305.8 ng·h/mL. In addition, the clearance in data set [4] (1.0 mg/kg-Solution) turned out to be 57.4 mL/min/kg.

As for `CNc1cc(F)cc2c1[nH]c1ncc(-c3cnc4c(c3)c(=O)c(C(=O)O)cn4CC(C)O)c(N3CCOCC3)c12` (stereo not shown) [Example 1.53], in data set [5], the CC50 at 3 days was more than 100000 nM. The IC50 in data set [1] is less than 0.098 µM; in data set [2], 0.764 µM; in data set [3], less than 0.098 µM. Moreover, the AUC total in data set [4] (1.0 mg/kg-Solution) amounted to 211.3 ng·h/mL. The clearance in data set [4] (1.0 mg/kg-Solution) was 83.5 mL/min/kg.

Turning to `CNc1c(F)c(F)cc2c1[nH]c1ncc(-c3cnc4c(c3)c(=O)c(C(=O)O)cn4C3CCNC3)c(N(C)C)c12` (stereo not shown) [Example 1.55], the CC50 at 3 days in data set [5] amounted to 49800 nM. The compound further came in with an IC50 in data set [2] of 0.334 µM. This compound had a concentration for half-maximal inhibition (IC50) in data set [3] of 0.101 µM. For the same compound, in data set [4] (1.0 mg/kg-Solution), the AUC total was 165.9 ng·h/mL and the clearance is 98.7 mL/min/kg.

For the compound `CNc1cc(F)c(F)c2c1[nH]c1ncc(-c3cnc4c(c3)c(=O)c(C(=O)O)cn4CC(N)C(C)C)c(N3CCOCC3)c12` (stereo not shown) [Example 1.57], in data set [5], the CC50 at 3 days is 35900 nM. The compound also displayed an IC50 in data set [2] of 0.198 µM. In data set [3], this compound gave a half-inhibitory concentration (IC50) of less than 0.098 µM. Further, in data set [4] (0.7 mg/kg-Solution), the AUC total was 190.8 ng·h/mL and the clearance is 84.6 mL/min/kg.

`CNc1cc(F)cc2c1[nH]c1ncc(-c3cnc4c(c3)c(=O)c(C(=O)O)cn4NC)c(N3CC[C@H]4CN(C)CC43)c12` (stereo partly shown) [Example 1.86] showed a thermodynamic solubility in data set [6] of more than 805 µg/mL. In addition, the CC50 at 3 days in data set [5] was 43400 nM. The concentration for half-maximal inhibition (IC50) in data set [1] is less than 0.098 µM; in data set [2], 0.175 µM; in data set [3], 0.15 µM. In data set [4] (1.0 mg/kg-Solution), the AUC total was found to be 194.1 ng·h/mL. In addition, the clearance in data set [4] (1.0 mg/kg-Solution) was 86.5 mL/min/kg.

For `CNc1cc(F)c(F)c2c1[nH]c1ncc(-c3cnc4c(c3)c(=O)c(C(=O)O)cn4C)c(N3CC4[C@H](CCN4C)C3)c12` (stereo partly shown) [Example 1.192], in data set [6], the solubility (thermodynamic) was determined as 58 µg/mL (≈ 104 µM). Further, the IC50 was less than 0.098 µM in data set [1], 0.105 µM in data set [2] and less than 0.098 µM in data set [3]. Besides, in data set [4] (1.0 mg/kg-Solution), the AUC total was found to be 235.0 ng·h/mL. For the same compound, the clearance in data set [4] (1.0 mg/kg-Solution) stood at 69.6 mL/min/kg.

`CNc1cc(F)c(F)c2c1[nH]c1ncc(-c3cnc4c(c3)c(=O)c(C(=O)O)cn4C)c(N3CC[C@H]4CCN(C)C4C3)c12` (stereo partly shown) [Example 1.196] displayed a solubility (thermodynamic) in data set [6] of 25 µg/mL (≈ 43.6 µM). In addition, the figures for the IC50 in data set [1], in data set [2] and in data set [3] were less than 0.098 µM, 0.102 µM and less than 0.098 µM, respectively. For the same compound, the AUC total in data set [4] (1.0 mg/kg-Solution) is 177.4 ng·h/mL. In addition, in data set [4] (1.0 mg/kg-Solution), the clearance amounted to 98.4 mL/min/kg.

As for `CNc1cc(F)c(F)c2c1[nH]c1ncc(-c3cnc4c(c3)c(=O)c(C(=O)O)cn4C)c(N3CCC4(CN(C)CCO4)C3)c12` (stereo not shown) [Example 1.202], the results for the half-inhibitory concentration (IC50) in data set [1], in data set [2] and in data set [3] were less than 0.098 µM, 0.16 µM and less than 0.098 µM, respectively. In data set [4] (1.0 mg/kg-Solution), the AUC total came to 167.5 ng·h/mL. The clearance in data set [4] (1.0 mg/kg-Solution) was 98.1 mL/min/kg.

In data set [6], `CNc1cc(F)c(F)c2c1[nH]c1ncc(-c3cnc4c(c3)c(=O)c(C(=O)O)cn4C)c(N3CC(N(C)C)C4(CC4)C3)c12` (stereo not shown) [Example 1.207] yielded a thermodynamic solubility of 73 µg/mL (≈ 127 µM). For the same compound, the IC50 in data set [1] is less than 0.098 µM; in data set [2], 0.203 µM; in data set [3] it was 0.101 µM. For the same compound, in data set [4] (1.0 mg/kg-Solution), the AUC total amounted to 188.3 ng·h/mL. Also, the clearance in data set [4] (1.0 mg/kg-Solution) stood at 85.7 mL/min/kg.

With `CNc1cc(F)c(F)c2c1[nH]c1ncc(-c3cnc4c(c3)c(=O)c(C(=O)O)cn4C)c(N3CC4[C@@H](C3)OCCN4C)c12` (stereo partly shown) [Example 1.241], the IC50 was less than 0.098 µM in data set [1], 0.095 µM in data set [2] and less than 0.098 µM in data set [3]. In addition, the AUC total in data set [4] (1.0 mg/kg-Solution) is 196.3 ng·h/mL. Moreover, the clearance in data set [4] (1.0 mg/kg-Solution) is 84.3 mL/min/kg.

With `CNc1cc(F)c(F)c2c1[nH]c1ncc(-c3cnc4c(c3)c(=O)c(C(=O)O)cn4NC)c(N3CC[C@@H]4CN(C)C[C@@H]43)c12` [Example 3.01B, 6-[5,6-difluoro-8-(methylamino)-4-[(3aR,6aR)-5-methyl-2,3,3a,4,6,6a-hexahydropyrrolo[2,3-c]pyrrol-1-yl]-9H-pyrido[2,3-b]indol-3-yl]-1-(methylamino)-4-oxo-1,8-naphthyridine-3-carboxylic acid], in data set [6], the thermodynamic solubility was found to be 265 µg/mL (≈ 461 µM). Moreover, the cytotoxic concentration (CC50) at 3 days in data set [5] was 39400 nM. Besides, the IC50 is less than 0.098 µM in data set [1], 0.56 µM in data set [2] and 0.168 µM in data set [3]. The AUC total in data set [4] (1.0 mg/kg-Solution) was 156.1 ng·h/mL. Also, in data set [4] (1.0 mg/kg-Solution), the clearance was 105 mL/min/kg.

For the compound `CNc1cc(F)c(F)c2c1[nH]c1ncc(-c3cnc4c(c3)c(=O)c(C(=O)O)cn4NC)c(N3C[C@H]4CCN(C)[C@H]4C3)c12` [Example 3.07A], in data set [6], the thermodynamic solubility turned out to be 20 µg/mL (≈ 34.8 µM). Also, the half-maximal cytotoxic concentration (CC50) at 3 days in data set [5] was more than 100000 nM. For the same compound, the IC50 was less than 0.098 µM in data set [1], 0.076 µM in data set [2] and less than 0.098 µM in data set [3]. Also, the AUC total in data set [4] (1.0 mg/kg-Solution) was determined as 214.0 ng·h/mL. Besides, the clearance in data set [4] (1.0 mg/kg-Solution) stood at 77.4 mL/min/kg.

Consider `CNc1cc(F)c(F)c2c1[nH]c1ncc(-c3cnc4c(c3)c(=O)c(C(=O)O)cn4C)c(N3C[C@H]4CCN(C)[C@H]4C3)c12` [Example 3.08A], for which, in data set [6], the thermodynamic solubility turned out to be 119 µg/mL (≈ 213 µM). The IC50 in data set [1] was less than 0.098 µM; in data set [2], 0.049 µM; in data set [3] it was less than 0.098 µM. The compound further had an AUC total in data set [4] (1.0 mg/kg-Solution) of 190.5 ng·h/mL. In data set [4] (1.0 mg/kg-Solution), the clearance was determined as 86.7 mL/min/kg.
